# Measurements taken from patent publication US12077537B2 (Gilead Sciences, Inc., priority 2020, dated 2024).
# System: HIV-IIIb
# Assay: Antiviral assay in MT4 cells
# Assay type: cell-based
# Settings: Human immunodeficiency virus 1, MT4, 120 h; MT-4 cells mixed with HIV-IIIb at m.o.i. 0.003; 5 days at 37° C.; CellTiter-Glo luminescence; 50% decrease in signal, a measure of HIV-1 replication
# Outline: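 MT-4 cells were infected with HIV-IIIb at m.o.i. 0.003 for 1 hour, then added to 3-fold serially diluted compound (10 concentrations, quadruplicate) in medium with 10% FBS. After 5 days at 37° C, cell viability was read by CellTiter-Glo chemiluminescence.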
row,SMILES,EC50
1,"NC(=O)c1cc(-c2cc3sc(N4CCN(c5ccc6c(c5)OCCO6)CC4)nc3nc2[C@H](Cc2cc(F)cc(F)c2)NC(=O)Cn2nc(C(F)F)c3c2C(F)(F)CCC3(F)F)ccc1F [Compound 139, (S)-5-(5-(1-(2-(3-(difluoromethyl)-4,4,7,7-tetrafluoro-4,5,6,7-tetrahydro-1H-indazol-1-yl)acetamido)-2-(3,5-difluorophenyl)ethyl)-2-(4-(2,3-dihydrobenzo[b][1,4]dioxin-6-yl)piperazin-1-yl)thiazolo[4,5-b]pyridin-6-yl)-2-fluorobenzamide]",545 nM
2,"NC(=O)c1cc(-c2cc3sc(N4CCN(c5ccc(Cl)cc5)CC4)nc3nc2[C@H](Cc2cc(F)cc(F)c2)NC(=O)Cn2nc(C(F)(F)F)c3c2C(F)(F)[C@@H]2C[C@H]32)ccc1F [Compound 140, 5-(2-(4-(4-chlorophenyl)piperazin-1-yl)-5-((S)-1-(2-((3bS,4aR)-5,5-difluoro-3-(trifluoromethyl)-3b,4,4a,5-tetrahydro-1H-cyclopropa[3,4]cyclopenta[1,2-c]pyrazol-1-yl)acetamido)-2-(3,5-difluorophenyl)ethyl)thiazolo[4,5-b]pyridin-6-yl)-2-fluorobenzamide]",1370 nM
3,"NC(=O)c1cc(-c2cc3sc(N4CCN(c5ccc(C(F)(F)F)cc5)CC4)nc3nc2[C@H](Cc2cc(F)cc(F)c2)NC(=O)Cn2nc(C(F)(F)F)c3c2C(F)(F)[C@@H]2C[C@H]32)ccc1F [Compound 141, 5-(5-((S)-1-(2-((3bS,4aR)-5,5-difluoro-3-(trifluoromethyl)-3b,4,4a,5-tetrahydro-1H-cyclopropa[3,4]cyclopenta[1,2-c]pyrazol-1-yl)acetamido)-2-(3,5-difluorophenyl)ethyl)-2-(4-(4-(trifluoromethyl)phenyl)piperazin-1-yl)thiazolo[4,5-b]pyridin-6-yl)-2-fluorobenzamide]",1810 nM
4,"CSc1nc2nc([C@H](Cc3cc(F)cc(F)c3)NC(=O)Cn3nc(C(F)(F)F)c4c3C(F)(F)[C@@H]3C[C@H]43)c(-c3ccc4c(c3)C(=O)NC4)cc2s1 [Compound 142, 2-((3bS,4aR)-5,5-difluoro-3-(trifluoromethyl)-3b,4,4a,5-tetrahydro-1H-cyclopropa[3,4]cyclopenta[1,2-c]pyrazol-1-yl)-N—((S)-2-(3,5-difluorophenyl)-1-(2-(methylthio)-6-(3-oxoisoindolin-5-yl)thiazolo[4,5-b]pyridin-5-yl)ethyl)acetamide]",38.9 nM
5,"O=C(Cn1nc(C(F)(F)F)c2c1C(F)(F)[C@@H]1C[C@H]21)N[C@@H](Cc1cc(F)cc(F)c1)c1nc2nc(-c3ccc(N4CCOCC4)cc3)sc2cc1-c1ccc2c(c1)C(=O)NC2 [Compound 144, 2-((3bS,4aR)-5,5-difluoro-3-(trifluoromethyl)-3b,4,4a,5-tetrahydro-1H-cyclopropa[3,4]cyclopenta[1,2-c]pyrazol-1-yl)-N—((S)-2-(3,5-difluorophenyl)-1-(2-(4-morpholinophenyl)-6-(3-oxoisoindolin-5-yl)thiazolo[4,5-b]pyridin-5-yl)ethyl)acetamide]",44.4 nM
6,"CC(C)(C)OC(=O)N1CCN(c2ccc(-c3nc4nc([C@H](Cc5cc(F)cc(F)c5)NC(=O)Cn5nc(C(F)(F)F)c6c5C(F)(F)[C@@H]5C[C@H]65)c(-c5ccc6c(c5)C(=O)NC6)cc4s3)cc2)CC1 [Compound 145, tert-butyl 4-(4-(5-((S)-1-(2-((3bS,4aR)-5,5-difluoro-3-(trifluoromethyl)-3b,4,4a,5-tetrahydro-1H-cyclopropa[3,4]cyclopenta[1,2-c]pyrazol-1-yl)acetamido)-2-(3,5-difluorophenyl)ethyl)-6-(3-oxoisoindolin-5-yl)thiazolo[4,5-b]pyridin-2-yl)phenyl)piperazine-1-carboxylate]",370 nM
7,"O=C(Cn1nc(C(F)(F)F)c2c1C(F)(F)[C@@H]1C[C@H]21)N[C@@H](Cc1cc(F)cc(F)c1)c1nc2nc(-c3ccc(N4CCNCC4)cc3)sc2cc1-c1ccc2c(c1)C(=O)NC2 [Compound 147, 2-((3bS,4aR)-5,5-difluoro-3-(trifluoromethyl)-3b,4,4a,5-tetrahydro-1H-cyclopropa[3,4]cyclopenta[1,2-c]pyrazol-1-yl)-N—((S)-2-(3,5-difluorophenyl)-1-(6-(3-oxoisoindolin-5-yl)-2-(4-(piperazin-1-yl)phenyl)thiazolo[4,5-b]pyridin-5-yl)ethyl)acetamide]",37 nM
8,"NC(=O)c1cc(-c2cc3sc(-c4cncnc4)nc3nc2[C@H](Cc2cc(F)cc(F)c2)NC(=O)Cn2nc(C(F)(F)F)c3c2C(F)(F)[C@@H]2C[C@H]32)ccc1F [Compound 148, 5-(5-((S)-1-(2-((3bS,4aR)-5,5-difluoro-3-(trifluoromethyl)-3b,4,4a,5-tetrahydro-1H-cyclopropa[3,4]cyclopenta[1,2-c]pyrazol-1-yl)acetamido)-2-(3,5-difluorophenyl)ethyl)-2-(pyrimidin-5-yl)thiazolo[4,5-b]pyridin-6-yl)-2-fluorobenzamide]",90.4 nM
9,"NC(=O)c1cc(-c2cc3sc(-c4cn[nH]c4)nc3nc2[C@H](Cc2cc(F)cc(F)c2)NC(=O)Cn2nc(C(F)(F)F)c3c2C(F)(F)[C@@H]2C[C@H]32)ccc1F [Compound 149, 5-(5-((S)-1-(2-((3bS,4aR)-5,5-difluoro-3-(trifluoromethyl)-3b,4,4a,5-tetrahydro-1H-cyclopropa[3,4]cyclopenta[1,2-c]pyrazol-1-yl)acetamido)-2-(3,5-difluorophenyl)ethyl)-2-(1H-pyrazol-4-yl)thiazolo[4,5-b]pyridin-6-yl)-2-fluorobenzamide]",106 nM
10,"O=C(Cn1nc(C(F)(F)F)c2c1CCCC2)N[C@@H](Cc1ccccc1)c1nc2ccccc2[nH]1 [Example 1, (S)—N-(1-(1H-benzo[d]imidazol-2-yl)-2-phenylethyl)-2-(3-(trifluoromethyl)-4,5,6,7-tetrahydro-1H-indazol-1-yl)acetamide]",29700 nM
11,"N#Cc1cc(-c2cc3sc(N4CCOCC4)nc3nc2[C@H](Cc2cc(F)cc(F)c2)NC(=O)Cn2nc(C(F)F)c3c2C(F)(F)CCC3(F)F)ccc1F [Example 3K, (S)—N-(1-(6-(3-cyano-4-fluorophenyl)-2-morpholinothiazolo[4,5-b]pyridin-5-yl)-2-(3,5-difluorophenyl)ethyl)-2-(3-(difluoromethyl)-4,4,7,7-tetrafluoro-4,5,6,7-tetrahydro-1H-indazol-1-yl)acetamide]",1800 nM

# Now those with a lower EC50, led by results:
row,EC50,SMILES
1,15.5 nM,"O=C(Cn1nc(C(F)(F)F)c2c1C(F)(F)[C@@H]1C[C@H]21)N[C@@H](Cc1cc(F)cc(F)c1)c1nc2nc(-c3ccc4c(c3)C(=O)NC4)sc2cc1-c1ccc2c(c1)C(=O)NC2 [Compound 143, N—((S)-1-(2,6-bis(3-oxoisoindolin-5-yl)thiazolo[4,5-b]pyridin-5-yl)-2-(3,5-difluorophenyl)ethyl)-2-((3bS,4aR)-5,5-difluoro-3-(trifluoromethyl)-3b,4,4a,5-tetrahydro-1H-cyclopropa[3,4]cyclopenta[1,2-c]pyrazol-1-yl)acetamide]"
2,8 nM,"CN(C)C1CN(c2nc3nc([C@H](Cc4cc(F)cc(F)c4)NC(=O)Cn4nc(C(F)(F)F)c5c4C(F)(F)[C@@H]4C[C@H]54)c(-c4cccc5c(NS(C)(=O)=O)nn(C)c45)cc3s2)C1 [Compound 150, 2-((3bS,4aR)-5,5-difluoro-3-(trifluoromethyl)-3b,4,4a,5-tetrahydro-1H-cyclopropa[3,4]cyclopenta[1,2-c]pyrazol-1-yl)-N—((S)-2-(3,5-difluorophenyl)-1-(2-(3-(dimethylamino)azetidin-1-yl)-6-(1-methyl-3-(methylsulfonamido)-1H-indazol-7-yl)thiazolo[4,5-b]pyridin-5-yl)ethyl)acetamide]"
3,14.1 nM,"CN(C)c1ncc(-c2nc3nc([C@H](Cc4cc(F)cc(F)c4)NC(=O)Cn4nc(C(F)(F)F)c5c4C(F)(F)[C@@H]4C[C@H]54)c(-c4cccc5c(NS(C)(=O)=O)nn(C)c45)cc3s2)cn1 [Compound 151, 2-((3bS,4aR)-5,5-difluoro-3-(trifluoromethyl)-3b,4,4a,5-tetrahydro-1H-cyclopropa[3,4]cyclopenta[1,2-c]pyrazol-1-yl)-N—((S)-2-(3,5-difluorophenyl)-1-(2-(2-(dimethylamino)pyrimidin-5-yl)-6-(1-methyl-3-(methylsulfonamido)-1H-indazol-7-yl)thiazolo[4,5-b]pyridin-5-yl)ethyl)acetamide]"
4,23.6 nM,"CN(C)CCNc1nc2nc([C@H](Cc3cc(F)cc(F)c3)NC(=O)Cn3nc(C(F)(F)F)c4c3C(F)(F)[C@@H]3C[C@H]43)c(-c3cccc4c(NS(C)(=O)=O)nn(C)c34)cc2s1 [Example 65, 2-((3bS,4aR)-5,5-difluoro-3-(trifluoromethyl)-3b,4,4a,5-tetrahydro-1H-cyclopropa[3,4]cyclopenta[1,2-c]pyrazol-1-yl)-N—((S)-2-(3,5-difluorophenyl)-1-(2-((2-(dimethylamino)ethyl)amino)-6-(1-methyl-3-(methylsulfonamido)-1H-indazol-7-yl)thiazolo[4,5-b]pyridin-5-yl)ethyl)acetamide]"
5,22.4 nM,"CN(C)C1CCN(c2nc3nc([C@H](Cc4cc(F)cc(F)c4)NC(=O)Cn4nc(C(F)(F)F)c5c4C(F)(F)[C@@H]4C[C@H]54)c(-c4cccc5c(NS(C)(=O)=O)nn(C)c45)cc3s2)CC1 [Example 66, 2-((3bS,4aR)-5,5-difluoro-3-(trifluoromethyl)-3b,4,4a,5-tetrahydro-1H-cyclopropa[3,4]cyclopenta[1,2-c]pyrazol-1-yl)-N—((S)-2-(3,5-difluorophenyl)-1-(2-(4-(dimethylamino)piperidin-1-yl)-6-(1-methyl-3-(methylsulfonamido)-1H-indazol-7-yl)thiazolo[4,5-b]pyridin-5-yl)ethyl)acetamide]"
